Results: the NIST ThermoML archive (doi:10.1021/je5005752)

Test: xn = mol fraction of the nth substance listed
Details: 101 kPa, Liquid; for viscosity: Falling or rolling sphere viscometry; for mass density: Vibrating tube method

CCCC(=O)OCC [ethyl butanoate] + CCCCO
Details	mass density [kg/m3]	viscosity [mPa·s]
288.15 K, x1 = 0.1	822.84	2.336
288.15 K, x1 = 0.2001	831.39	1.762
288.15 K, x1 = 0.2999	839.43	1.408
288.15 K, x1 = 0.3998	846.96	1.186
288.15 K, x1 = 0.5	854.06	1.022
288.15 K, x1 = 0.5999	860.72	0.9212
288.15 K, x1 = 0.6998	867	0.8393
288.15 K, x1 = 0.7999	872.95	0.785
288.15 K, x1 = 0.9001	878.66	0.7409
288.15 K, x1 = 1	884.16	0.7224
293.15 K, x1 = 0.1	818.8	2.037
293.15 K, x1 = 0.2001	827.16	1.581
293.15 K, x1 = 0.2999	835.01	1.279
293.15 K, x1 = 0.3998	842.37	1.085
293.15 K, x1 = 0.5	849.32	0.9419
293.15 K, x1 = 0.5999	855.86	0.8544
293.15 K, x1 = 0.6998	862.01	0.7817
293.15 K, x1 = 0.7999	867.86	0.7316
293.15 K, x1 = 0.9001	873.47	0.6958
293.15 K, x1 = 1	878.9	0.6808
298.15 K, x1 = 0.1	814.75	1.841
298.15 K, x1 = 0.2001	822.9	1.427
298.15 K, x1 = 0.2999	830.57	1.166
298.15 K, x1 = 0.3998	837.77	0.9988
298.15 K, x1 = 0.5	844.57	0.8734
298.15 K, x1 = 0.5999	850.97	0.7967
298.15 K, x1 = 0.6998	857	0.7315
298.15 K, x1 = 0.7999	862.74	0.6849
298.15 K, x1 = 0.9001	868.27	0.656
298.15 K, x1 = 1	873.62	0.643
303.15 K, x1 = 0.1	810.68	1.648
303.15 K, x1 = 0.2001	818.63	1.292
303.15 K, x1 = 0.2999	826.12	1.068
303.15 K, x1 = 0.3998	833.15	0.9215
303.15 K, x1 = 0.5	839.8	0.8111
303.15 K, x1 = 0.5999	846.07	0.7434
303.15 K, x1 = 0.6998	851.98	0.6856
303.15 K, x1 = 0.7999	857.62	0.6447
303.15 K, x1 = 0.9001	863.05	0.6181
303.15 K, x1 = 1	868.33	0.6072
308.15 K, x1 = 0.1	806.58	1.479
308.15 K, x1 = 0.2001	814.33	1.174
308.15 K, x1 = 0.2999	821.63	0.9797
308.15 K, x1 = 0.3998	828.5	0.852
308.15 K, x1 = 0.5	835.01	0.7542
308.15 K, x1 = 0.5999	841.14	0.6973
308.15 K, x1 = 0.6998	846.94	0.6428
308.15 K, x1 = 0.7999	852.47	0.6063
308.15 K, x1 = 0.9001	857.82	0.583
308.15 K, x1 = 1	863.02	0.5736
313.15 K, x1 = 0.1	802.44	1.342
313.15 K, x1 = 0.2001	809.99	1.078
313.15 K, x1 = 0.2999	817.12	0.9078
313.15 K, x1 = 0.3998	823.82	0.7938
313.15 K, x1 = 0.5	830.18	0.7053
313.15 K, x1 = 0.5999	836.19	0.6517
313.15 K, x1 = 0.6998	841.87	0.6037
313.15 K, x1 = 0.7999	847.3	0.57
313.15 K, x1 = 0.9001	852.56	0.5487
313.15 K, x1 = 1	857.7	0.5425
318.15 K, x1 = 0.1	798.28	1.204
318.15 K, x1 = 0.2001	805.63	0.9786
318.15 K, x1 = 0.2999	812.57	0.8314
318.15 K, x1 = 0.3998	819.12	0.7327
318.15 K, x1 = 0.5	825.33	0.6556
318.15 K, x1 = 0.5999	831.21	0.6088
318.15 K, x1 = 0.6998	836.78	0.5678
318.15 K, x1 = 0.7999	842.11	0.5382
318.15 K, x1 = 0.9001	847.29	0.5197
318.15 K, x1 = 1	852.36	0.5132
323.15 K, x1 = 0.1	794.08	1.109
323.15 K, x1 = 0.2001	801.22	0.9039
323.15 K, x1 = 0.2999	807.99	0.7743
323.15 K, x1 = 0.3998	814.38	0.685
323.15 K, x1 = 0.5	820.45	0.6163
323.15 K, x1 = 0.5999	826.2	0.5736
323.15 K, x1 = 0.6998	831.66	0.5372
323.15 K, x1 = 0.7999	836.9	0.5114
323.15 K, x1 = 0.9001	842	0.4942
323.15 K, x1 = 1	847	0.487
